# Target: TNF-α Convertase (Homo sapiens, UniProt P78536)
# Assay: Assay for inhibition of TNF-α production in LPS-stimulated, PMA-differentiated U937 cells
# Conditions: not given
# Chain of TNF-α Convertase (P78536 215-824): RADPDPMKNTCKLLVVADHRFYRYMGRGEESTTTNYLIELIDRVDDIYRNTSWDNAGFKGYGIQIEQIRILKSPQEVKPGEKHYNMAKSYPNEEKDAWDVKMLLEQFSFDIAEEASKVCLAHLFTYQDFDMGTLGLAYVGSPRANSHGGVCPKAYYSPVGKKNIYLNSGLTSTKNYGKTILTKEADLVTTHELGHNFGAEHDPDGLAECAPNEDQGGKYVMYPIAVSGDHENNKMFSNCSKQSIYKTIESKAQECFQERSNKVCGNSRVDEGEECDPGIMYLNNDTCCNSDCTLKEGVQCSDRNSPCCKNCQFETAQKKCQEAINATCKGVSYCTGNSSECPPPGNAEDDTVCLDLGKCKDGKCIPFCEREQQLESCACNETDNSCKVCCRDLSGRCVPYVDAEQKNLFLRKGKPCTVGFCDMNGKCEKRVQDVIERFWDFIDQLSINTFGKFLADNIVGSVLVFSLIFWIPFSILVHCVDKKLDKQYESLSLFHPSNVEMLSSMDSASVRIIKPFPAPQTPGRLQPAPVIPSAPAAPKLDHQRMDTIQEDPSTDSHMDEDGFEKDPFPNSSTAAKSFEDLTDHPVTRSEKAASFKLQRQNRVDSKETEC
row,IC50,SMILES
1,1900 nM,"CC(C)CC(C(=O)NO)C(CC(C)C)C(=O)NC(Cc1ccc(CN)cc1)C(=O)NCCN(C)C (single isomer, unassigned) [Compound No. 89, N^a-[4-(Hydroxyamino)-2(R),3(R or S)-diisobutylsuccinyl]-4'-aminomethyl-L-phenylalanine N-(2-N',N'-dimethylaminoethyl)amide· 2 acetate]"
2,527 nM,"CNC(=O)[C@H](CCCCN)NC(=O)[C@H](CC(C)C)C(CCCc1ccc(C(=O)O)cc1)C(=O)NO (single isomer, unassigned) [Compound No. 67, N^a-[4-(Hydroxyamino)-2(R)-isobutyl-3(R or S)-[3-(p-carboxyphenyl)propyl]succinyl]-L-lysine N-methylamide]"
3,421 nM,"CNC(=O)[C@H](CCCCN)NC(=O)[C@H](CC(C)C)C(CCCc1ccc(C(=O)OC)cc1)C(=O)NO (single isomer, unassigned) [Compound No. 65, N^a-[4-(Hydroxyamino)-2(R)-isobutyl-3(R or S)-[3-(p-methoxycarbonylphenyl)propyl]succinyl]-L-lysine N-methylamide· 1 acetate]"

# The next lines start with the compound.
row,SMILES,IC50
1,"CNC(=O)[C@H](C)NC(=O)[C@H](CC(C)C)C(CCCc1ccc(CN)cc1)C(=O)NO (stereo partly drawn) [Compound No. 58, N^a-[4-(Hydroxyamino)-2(R)-isobutyl-3(RS)-[3-(p-aminomethylphenyl)propyl]succinyl]-L-alanine N-methylamide · 1 acetate]",942 nM
2,"CNC(=O)[C@H](C)NC(=O)[C@H](CC(C)C)C(CCCCCNC(C)=N)C(=O)NO (single isomer, unassigned) [Compound No. 62, N^a-[4-(Hydroxyamino)-2(R)-isobutyl-3(R or S)-[5-(acetimidoylimino)pentyl]succinyl]-L-alanine N-methylamide]",2890 nM
3,"CNC(=O)[C@H](CCCNC(=N)N)NC(=O)[C@H](CC(C)C)C(CCOc1ccccc1)C(=O)NO (single isomer, unassigned) [Compound No. 54, N^a-[4-(Hydroxyamino)-2(R)-isobutyl-3(R or S)-(2-phenoxyethyl)succinyl]-L-arginine N-methylamide· 1 acetate]",340 nM
4,"CNC(=O)C(CCCNC(=N)N)NC(=O)C(CC(C)C)C(CCCC1CCCCC1)C(=O)NO (single isomer, unassigned) [Compound No. 55, N^a-[4-(Hydroxyamino)-2(R)-isobutyl-3(R or S)-(3-cyclohexylpropyl)succinyl]-L-arginine N-methylamide · 1 acetate]",279 nM
5,"CNC(=O)C(Cc1ccc(CN)cc1)NC(=O)C(CC(C)C)C(CCCc1ccccc1)C(=O)NO (single isomer, unassigned) [Compound No. 47, N^a-[4-(Hydroxyamino)-2(R)-isobutyl-3(R or S)-(3-phenylpropyl)succinyl]-4'-aminomethyl-L-phenylalanine N-methylamide · 1 acetate]",210 nM

# Target: human fibroblast stromelysin (Homo sapiens, UniProt P08254)
# Sequence (P08254 100-477): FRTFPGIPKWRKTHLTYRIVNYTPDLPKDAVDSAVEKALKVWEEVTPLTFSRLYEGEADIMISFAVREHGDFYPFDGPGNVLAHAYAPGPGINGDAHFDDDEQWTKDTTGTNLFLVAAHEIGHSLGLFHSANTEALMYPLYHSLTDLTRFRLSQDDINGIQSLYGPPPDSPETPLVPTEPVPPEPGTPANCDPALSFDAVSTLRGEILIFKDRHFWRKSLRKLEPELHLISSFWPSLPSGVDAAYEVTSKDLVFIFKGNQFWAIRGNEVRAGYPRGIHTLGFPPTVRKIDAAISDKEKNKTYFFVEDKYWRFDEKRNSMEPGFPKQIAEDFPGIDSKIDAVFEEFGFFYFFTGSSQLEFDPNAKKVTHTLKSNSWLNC
# Assay: Assay for inhibition of stromelysin (fluorescein-labeled casein substrate)
# Type: biochemical
# Conditions: not given
# Procedure: (§1) Described below are assays for biological activities of the compounds according to the present invention, formulations, dosage forms and dosage levels thereof, and miscellaneous matters. The efficacy of the compounds represented by the formula (I) according to the present invention as inhibitors of human fibroblast collagenase (metalloproteinase involved in the breakdown of tissues) is determined by a procedure based on the method of Y. Murawaki et al., Journal of Hepatology, 18, p328-334 (1993). The efficacy of the compounds (I) of this invention as inhibitors of human fibroblast stromelysin is determined by a procedure based on the method of S. S. Twining, Anal. Biochem., 143, p30 (1984). The assay results obtained are shown hereinbelow, together with biological examples which illustrate embodiments of the assay protocols.
# The efficacy of compounds of the present invention to act as inhibitors of human fibroblast stromelysin was determined by the procedure of Twining (Anal. Biochem., 143, p.30, 1984), compared with a reference compound.
# Prostromelysin was activated by incubation with 20 µg/ml human plasmin at 37°C for 2 hours, and the reaction was stopped by addition of 2.8 mg/ml aqueous diisopropyl fluorophosphate. The inhibition was assayed using, as a substrate, fluorescein-labeled casein. To a solution of the substrate (1 mg/ml) in a 50 mM Tris-HCl buffer, pH 7.8, containing 10mM aqueous calcium chloride was added the activated stromelysin. The resultant solution was incubated at 37°C for 2 hours. The digestion of the substrate with the enzyme was stopped by addition of 5% trichloroacetic acid. Undigested substrates were precipitated by centrifugation at 3000 x g for 20 minutes. The supernatant was collected, followd by additon of a 0.5M Tris-HCl buffer, pH 8.5. The fluorescence was read using an excitation wavelength of 495 nm and an emission wavelength of 520 nm. The inhibitory potency of the compounds was calculated. […] The resulting assay data for representative examples are shown in Table 2, compared with the reference compound.
row,IC50,SMILES
1,14 nM,"CNC(=O)[C@H](CCCCN)NC(=O)[C@H](CC(C)C)C(CCCCCCCCO)C(=O)NO (single isomer, unassigned) [Compound No. 68, N^a-[4-(Hydroxyamino)-2(R)-isobutyl-3(R or S)-(8-hydroxyoctyl)-succinyl]-L-lysine N-methylamide· 1 acetate]"
2,28 nM,"CNC(=O)[C@H](CCCCN)NC(=O)[C@H](CC(C)C)C(CCOCC(C)C)C(=O)NO (single isomer, unassigned) [Compound No. 70, N^a-[4-(Hydroxyamino)-2(R)-isobutyl-3(R or S)-(2-isobutyloxyethyl)succinyl]-L-lysine N-methylamide· 1 acetate]"

# Second part, the compound before the results:
row,SMILES,IC50
1,"CNC(=O)[C@H](CCCNC(=N)N)NC(=O)[C@H](CC(C)C)C(Cc1ccc(CNS(C)(=O)=O)cc1)C(=O)NO (single isomer, unassigned) [Compound No. 52, N^a-[4-(Hydroxyamino)-2(R)-isobutyl-3(R or S)-(p-methanesulfonamidomethylbenzyl)succinyl]-L-arginine N-methylamide· 1 acetate]",23 nM
2,"CNC(=O)C(CCNC(=N)N)NC(=O)C(CC(C)C)C(CCCc1ccccc1)C(=O)NO [Compound No. 26, N^4-[3-Guanidino-1(S)-methylcarbamoylpropyl]-N^1-hydroxy-3(R)-isobutyl-2-(RS)-(3-phenylpropyl)succinamide · 1 acetate]",40 nM
3,"CNC(=O)[C@H](CCCNC(=N)N)NC(=O)[C@H](CC(C)C)C(CCOc1ccccc1)C(=O)NO (single isomer, unassigned) [Compound No. 54, N^a-[4-(Hydroxyamino)-2(R)-isobutyl-3(R or S)-(2-phenoxyethyl)succinyl]-L-arginine N-methylamide· 1 acetate]",10 nM

# Same assay, conditions: plasmin-activated human fibroblast prostromelysin, 37°C, 2 hours, pH 7.8; read-out: Inhibition of MMP-3
row,IC50,SMILES
1,19 nM,"CC(C)CC(C(=O)NO)C(CC(C)C)C(=O)NC(Cc1ccc(CN)cc1)C(=O)NCCO [Compound No. 35, N^a-[4-(Hydroxyamino)-2(R),3(RS)-diisobutylsuccinyl]-4'-aminomethyl-L-phenylalanine N-(2-hydroxyethyl)amide · 1 acetate]"
2,50 nM,"CC(C)CC(C(=O)NC(CCCN)C(=O)NC1CC1)C(C)C(=O)NO (single isomer, unassigned) [Compound No. 37, N^a-[4-(Hydroxyamino)-2(R)-isobutyl-3(R or S)-methylsuccinyl]-L-ornithine N-cyclopropylamide · 1 acetate]"

# Target: T1, human fibroblast collagenase (Homo sapiens, UniProt P03956)
# T1 sequence (P03956 100-469): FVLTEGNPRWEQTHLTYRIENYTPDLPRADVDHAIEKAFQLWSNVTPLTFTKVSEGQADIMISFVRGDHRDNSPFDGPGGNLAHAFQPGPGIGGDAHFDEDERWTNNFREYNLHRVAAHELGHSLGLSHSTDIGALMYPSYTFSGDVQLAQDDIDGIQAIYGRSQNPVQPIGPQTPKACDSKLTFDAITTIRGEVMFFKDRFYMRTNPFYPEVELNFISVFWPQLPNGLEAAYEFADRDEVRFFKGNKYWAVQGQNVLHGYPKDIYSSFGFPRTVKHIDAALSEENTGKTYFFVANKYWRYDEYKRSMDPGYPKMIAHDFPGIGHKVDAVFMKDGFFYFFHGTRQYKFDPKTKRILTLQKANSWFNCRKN
# Assay: Assay for inhibition of collagenase (fluorescein-labeled bovine type I collagen substrate)
# Type: biochemical
# Conditions: activated human fibroblast procollagenase, 35°C, 2 hours, pH 7.5; read-out: Inhibition of MMP-1
# Procedure: as §1
# The efficacy of compounds of the present invention to act as inhibitors of human fibroblast collagenase was determined by the procedure of Y. Murawaki et al. (Journal of Hepatology, 18, p.328-334, 1993), compared with a reference compound.
# Procollagenase was activated by incubation with 2 mM 4-aminophenylmercuric acetate (APMA) at 35°C for 2 hours. The inhibition was assayed using, as a substrate, fluorescein-labeled bovine type I collagen. To a solution of the substrate (0.5 mg/ml) in a 50 mM Tris-HCl buffer, pH 7.5, containing 0.4M aqueous sodium chloride and 10 mM aqueous […] was added the activated collagenase. The resultant solution was incubated at 35°C for 2 hours. The digestion of the substrate with the enzyme was stopped by addition of 80 mM o-phenanthroline, followed by addition of a porcine elastase solution formed by dissolving 25 µg/ml porcine elastase in the aforementioned Tris-HCl buffer. The mixture was incubated at 37°C for 10 minutes. To the resulting solution was added 70% ethanol, and a 170 mM Tris-HCl buffer, pH 9.5, containing 0.67M aqueous sodium chloride. Undigested substrates were precipitated by centrifugation at 3000 x g for 20 minutes. The supernatant was collected and the fluorescence was read using an excitation wavelength of 495 nm and an emission wavelength of 520 nm. The inhibitory potency of the compounds was calculated. […] The resulting assay data for representative examples are shown in Table 1, compared with the reference compound. […]
row,IC50,SMILES
1,11 nM,"CC(C)CC(C(=O)NO)[C@@H](CC(C)C)C(=O)N[C@@H](Cc1ccc(CN)cc1)C(=O)NCCC(=O)O (single isomer, unassigned) [Compound No. 84, N^a-[4-(Hydroxyamino)-2(R),3(R or S)-diisobutylsuccinyl]-4'-aminomethyl-L-phenylalanine N-(2-carboxyethyl)amide· 1 acetate]"
2,4 nM,"CNC(=O)C(CCCCN)NC(=O)C(CC(C)C)C(CCCN1C(=O)N(C)C(C)(C)C1=O)C(=O)NO (single isomer, unassigned) [Compound No. 82, N^a-[4-(Hydroxyamino)-2(R)-isobutyl-3(R or S)-(3-(3,4,4-trimethyl-2,5-dioxo-imidazolidin-1-yl)propyl]succinyl]-L-lysine N-methylamide]"
3,5 nM,"CNC(=O)[C@@H](NC(=O)[C@H](CC(C)C)C(CCCc1ccc(CN)cc1)C(=O)NO)C(C)(C)C (single isomer, unassigned) [Compound No. 79, N^a-[4-(Hydroxyamino)-2(R)-isobutyl-3(R or S)-[3-(p-aminomethylphenyl)propyl]succinyl]-L-tert-leucine N-methylamide· 1 acetate]"

# Continued, compound first:
row,SMILES,IC50
1,"CCCOC[C@H](C(=O)N[C@@H](Cc1ccc(OC)cc1)C(=O)NC)[C@H](CSC(C)C)C(=O)NO [Reference Compound No. 1, N-[4-(N-hydroxyamino)-2(R)-n-propyloxymethyl-3(S)-isopropyl-thiomethylsuccinyl)-O-methyl-L-tyrosine-N-methylamide, reference compound]",11 nM
2,"CNC(=O)C(CCNC(=N)N)NC(=O)C(CC(C)C)C(C)C(=O)NO (single isomer, unassigned) [Compound No. 28, N^4-[3-Guanidino-1(S)-methylcarbamoylpropyl]-N^1-hydroxy-3(R)-isobutyl-2(R or S)-methylsuccinamide · 1 acetate]",10 nM

# Source: patent publication EP1038864A1, “NOVEL METALLOPROTEINASE INHIBITORS” (FUJI YAKUHIN KOGYO KABUSHIKI KAISHA, priority 1997, dated 1999)
